Several values for one entry are separate records, joined by “and”; a condition that tells them apart may be missing. Equal entries are not always repeated.
Test system: 192522-019-R-J2-PDC complex tumor spheroid viability
Experiment: Anticancer human tumor 192522-019-R-J2-PDC patient-derived colon adenocarcinoma cell line growth inhibition [POLQ]
Conditions: for viability, T/C: stronger effect = lower value
Description: Multicellular complex tumor spheroid response to Polymerase (POL) inhibitors (novobiocin, ART-558, RP6685) in combination with a variety of drugs and investigational agents in selected tumor cell lines
The POL inhibitors (novobiocin, ART-558, and RP6685) were evaluated both individually and in combination with standard of care and investigational anticancer small molecules within a complex spheroid model of solid tumors. . Complex spheroids include a stromal component modeled by human endothelial cells (HUVEC) and fibroblasts modeled by human mesenchymal stem cells (MSCs). The concentration ranges selected for each drug and investigational agent were based upon clinically achievable concentrations if the clinical Cmax of the agent was known.
Compounds. The drugs and investigational agents: novobiocin (NSC847541), ART-558 (NSC835418), RP-6685 (NSC848927), peposertib (NSC802822), ceralasertib (NSC780249), elimusertib (NSC800525), camonsertib (NSC841442), AZD-1390 (NSC803789), olaparib (NSC753686), talazoparib (NSC767125), rucaparib (NSC756644), sotorasib (NSC818433), MRTX-1133 (NSC836407), SN-38 (NSC673596), topotecan (NSC609699), epotoside (NSC141540), doxorubicin (NSC123127), gemcitabine (NSC613327), 5-fluorouracil (NSC19893), paclitaxel (NSC125973), vemurafenib (NSC761431), MSA-2 (NSC828583), SN-011 (NSC837082), adavosertib (NSC754352), prexasertib (NSC758257), carboplatin (NSC241240) and oxaliplatin (NSC266046), were obtained from the National Cancer Institute (NCI) Developmental Therapeutics Program Chemical Repository (21). The FDA-approved anticancer drug set is available from the Developmental Therapeutics Program at https://dtp.cancer.gov/organization/dscb/obtaining/. […] The stock solutions were prepared in dimethyl sulfoxide (DMSO, Sigma-Aldrich, St. Louis, MO, cat. D2650), except for the platinum compounds which were prepared in saline (Quality Biological, Gaithersburg, MD, cat. 114-055-101), at 800-fold the tested concentration and stored at -70 degrees C prior to their use. All drugs and investigational agents were tested over a range starting from a high concentration at or near the clinical Cmax and decreasing in half-log increments. If the clinical Cmax for an agent had not been determined, the highest concentration tested was 10 microM, except for SN-38, which was tested at a high concentration of 1 microM.
Cell Culture. All cells were maintained in an incubator at 37 degrees C and 5% CO2 with 95% humidity. The PDC lines were cultured according to standard operating procedures established by the NCI PDMR (https://pdmr.cancer.gov). Table 3 of the manuscript, lists the cell lines along with the number of the three cell types plated to form the mct-spheroids and media for tumor cell growth. After thawing, all PDC lines, except 997537-175-T-J1-PDC and 415267-285-R-J2-PDC, were cultured in Matrigel-coated flasks prepared with a working solution of 1X Ham's F-12 nutrient mix, without supplementation (Thermo Fisher Scientific, cat. 11765054), 100 U/mL penicillin-streptomycin (Thermo Fisher Scientific, cat. 15140122), and 2.5% Matrigel (Corning Inc., Corning, NY, cat. 354248) for the first three passages. The two PDC lines 997537-175-T-J1-PDC and 415267-285-R-J2-PDC were cultured on uncoated flasks. The 857933-349-R-J2-PDC line was cultured in 6C/Colon 1B media containing advanced DMEM/F-12 (Thermo Fisher Scientific, cat. 12634028), 10 mM HEPES (Thermo Fisher Scientific, cat. 15630080), 1X GlutaMAX supplement (Thermo Fisher Scientific, cat. 35050061), 0.1 mg/mL primocin (InvivoGen, San Diego, CA, cat. ant-pm-2), 10% defined fetal bovine serum, heat inactivated (HyClone Laboratories Inc., Logan, UT, cat. SH30070.03HI), 50% L-WRN conditioned media (ATCC, cat. CRL-3276), 1.25 mM N-Acetyl-L-cysteine (Sigma-Aldrich, cat. A9165), 10 mM nicotinamide (Sigma-Aldrich, cat. N0636), 1X B-27 supplement (Thermo Fisher Scientific, cat. 17504044), 1X N-2 supplement (Thermo Fisher Scientific, cat. […]

[1] = compound alone, run of 11/06/2023
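Also: spheroids exposed to drugs for seven days before reading.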
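For viability, T/C in this document: 100% = DMSO vehicle control viability in luminescence.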

Row | SMILES | viability, T/C (compound 0.0316 µM) | viability, T/C (compound 0.1 µM) | viability, T/C (compound 0.316 µM) | viability, T/C (compound 1 µM) | viability, T/C (compound 3.16 µM) | viability, T/C (compound 10 µM) | IC50 (compound alone, run of 10/31/2023) [µM] | IC50 [1] [µM] | viability, T/C (compound 0.000316 µM) | viability, T/C (compound 0.001 µM) | viability, T/C (compound 0.00316 µM) | viability, T/C (compound 0.01 µM) | IC50 (curve of compound) [µM]
1 | Cc1cccc(N(C)C(=O)C2C(O)CCN2c2nc(C)cc(C(F)(F)F)c2C#N)c1 (stereo not given) | 107% [middle of 13 runs] | 108% [middle of 13 runs] | 110% [middle of 13 runs] | 106% [middle of 13 runs] | 106% [middle of 13 runs] | 110% [middle of 13 runs] | > 10 | > 10 |  |  |  |  | 
2 | Cn1ncnc1[C@H]1c2n[nH]c(=O)c3cc(F)cc(c23)N[C@@H]1c1ccc(F)cc1 | 103% and 104% and 98.2% | 91.1% and 96.3% and 85.5% |  |  |  |  |  |  | 107% and 103% and 109% | 95.2% and 97.2% and 98.7% | 95.3% and 101% and 95.1% | 107% and 103% and 104% | > 0.1
3 | Nc1ccc(C#CCN(C(=O)Cc2ncc(C(F)(F)F)cc2C(F)(F)F)c2ccc(F)cc2)nn1 | 104% [middle of 13 runs] | 106% [middle of 13 runs] | 106% [middle of 13 runs] | 105% [middle of 13 runs] | 105% [middle of 13 runs] | 107% [middle of 13 runs] |  | > 10 |  |  |  |  | 
4 | Nc1ccn(C2OC(CO)C(O)C2(F)F)c(=O)n1 (stereo not given) | 100% and 102% and 104% | 83.2% and 86.6% and 83.9% | 72.9% and 76.2% and 66.8% | 78.3% and 79.2% and 66% | 71.9% and 82% and 62.9% | 50.5% and 62.5% and 58.2% |  |  |  |  |  |  | > 10
5 | O=C(Nc1ccc(O)c(NS(=O)(=O)c2ccc(F)cc2)c1)c1ccc(-c2ccccc2)cc1 | 104% and 99.9% and 101% | 99.1% and 96.7% and 91.7% | 102% and 97.6% and 88.4% | 101% and 99.2% and 96% | 103% and 99.1% and 99.2% | 104% and 100% and 93.4% |  |  |  |  |  |  | > 10
6 | O=C(c1cc(Cc2n[nH]c(=O)c3ccccc23)ccc1F)N1CCN(C(=O)C2CC2)CC1 | 99.6% and 98.7% and 100% | 99% and 96.3% and 98.5% | 96.2% and 100% and 101% | 91.8% and 106% and 102% | 97.4% and 116% and 113% | 102% and 100% and 101% |  |  |  |  |  |  | > 10
7 | O=c1[nH]cc(F)c(=O)[nH]1 | 92.8% and 104% and 97.2% | 88.4% and 98% and 84.1% | 81.6% and 85.3% and 79.5% | 79.2% and 93.5% and 73.6% | 86.3% and 94.5% and 74.5% | 76.5% and 86% and 63.1% |  |  |  |  |  |  | > 10
